≈ marks a conversion by molar mass, not a printed value. Like-named read-outs stand apart in the source and are kept apart here.
Experiments:
[1] = background; natural prostacyclin under neutral or acidic conditions; cited from earlier work
[2] = background; cited from earlier work
[3] = test system: epithelial cells of rabbits; assay: cell protecting action against cell lethal action at pH 3; assay type: cell-based, rabbit; conditions: 10^-6 M
[4] = test system: platelet aggregation (rabbit platelet-rich plasma, ADP); assay: in vitro inhibition of ADP-induced platelet aggregation; assay type: cell-based, rabbit (Japanese domestic white male); conditions: Oryctolagus cuniculus
Procedure: (i) Measurement of in vitro inhibitory activity of platelet aggregation
The in vitro platelet aggregation inhibiting activities of 9(0)-methano-Δ^6(9) -prostaglandin I, obtained in Example 3 was examined by using rabbits. Blood was withdrawn from the ear vein of Japanese domestic white male rabbits weighing 2.5 to 3.5 kg. A mixture of a 3.8% trisodium citrate solution and the blood in a ratio of 1:9 was centrifuged at a speed of 1000 rpm for 10 minutes. The upper layer was separated as platelet-rich plasma (PRP). The lower layer was further centrifuged at a speed of […] for 10 minutes. The upper layer was separated as platelet-poor plasma (PPP). The number of platelets was adjusted to 6×10^5 /μl to 7×10^5 /μl by diluting the PRP with PPP. 25 microliters of the test compound prepared as shown below was added in an amount of 250 microliters of PRP after the adjustment, and the mixture was pre-incubated at 37° C. for 2 minutes, and then 10 μM (final) of ADP was added. By using an aggregometer, changes in transmission were recorded.
The test compound was dissolved in ethanol to a concentration of 10 mg/ml. When its activity was measured, it was used after being diluted with phosphate buffer (pH 7.4).
The rate of inhibition of platelet aggregation was determined from the following equation. [formula] To : the transmittance of the system containing the phosphate buffer, T: the transmittance of the system to which the test compound was added.
The minimum concentration of the compound which inhibited more than 50% of platelet aggregation was shown as an IC50 value.

[5] = hypotensive activity, intravenous injection in anesthetized rats: blood pressure; assay type: in vivo, rat (male wister); conditions: rat, i.v., dosage causing a 20% lowering of mean blood pressure
Procedure: (§1) (ii) Measurement of the hypotensive activity
(§2) The actions of the 9(0)-methano-Δ^6(9) -prostaglandin 1, obtained in Example 3 on the blood pressure and heart rate of rats were examined by intravenous injection under anesthesia.
(§3) Male wister rats weighing about 250 g were used. Urethane (500 mg/kg) and α-chloralose (100 mg/kg) were intraperitoneally administered to the rats. The rats were anesthetized and fixed place.
(§4) The test compound was dissolved in a small amount of ethanol and diluted with 0.05M Tris buffer saline (pH 9) to adjust the final ethanol concentration to not more than 5%. The solution was intravenously injected into the rats through a cathether inserted into the femoral vein.
(§5) The blood pressure of the rats was measured by a pressure transducer through a cathether inserted into the carotid artery of the rats. The heart rate was determined from the blood pressure pulse.
(§6) The action of the test compound on the blood pressure was expressed as the dosage (ED20, μg/kg) of the test compound which caused a 20% lowering of the mean blood pressure before administration of the compound. The action of the test compound on the heart rate was expressed as the dosage (ED10, μg/kg) of the test compound which caused a 10% increase of the heart rate from the heart rate before administration of the test compound.

[6] = heart rate, intravenous injection in anesthetized rats; assay type: in vivo, rat (male wister); conditions: rat, i.v., dosage causing a 10% increase of heart rate
Procedure: as §1, §2, §3, §4, §5, §6

[7] = rabbit PRP, 10 μM ADP, minimum concentration which inhibited more than 50% of platelet aggregation, read-out: platelet aggregation inhibiting activity IC50

| SMILES | chemical stability, in words [1] | action-selectivity, in words [2] | biological activity relative to natural prostacyclin, in words [2] | cell protecting action [3] | IC50 ([4]; Platelet, rabbits, induced by ADP, read-out: inhibition of platelet aggregation IC50) [ng/mL] | IC50 [4, 7] [ng/mL] | ED20 [5] [µg/kg] | increase of heart rate ED10 [6] [µg/kg] |
| --- | --- | --- | --- | --- | --- | --- | --- | --- |
| CCCCC[C@H](O)/C=C/[C@@H]1[C@H]2C/C(=C\CCCC(=O)O)C[C@H]2C[C@H]1O [6,9-(0)-methanoprostacyclin] | able to satisfy the chemical stableness to perfection | not enough specific in action-selectivity | inferior to natural prostacyclin in biological activity | – | – | – | – | – |
| CCCCC[C@H](O)/C=C/[C@@H]1[C@H]2CC(CCCCC(=O)O)=C[C@H]2C[C@H]1O [9(0)-methano-Δ^6(9) -prostaglandin I1] | – | – | – | has a cell protecting action | 5.4 (≈ 0.0154 µM) | 5.4 (≈ 0.0154 µM) | 1.7 | > 30 |
| CCCCC[C@H](O)/C=C/[C@@H]1[C@H]2C/C(=C/CCCC(=O)O)O[C@H]2C[C@H]1O [PGI2] | apt to be appreciably hydrolyzed | – | – | – | – | 1.6 (≈ 0.00454 µM) | 0.068 | > 10 |

From US4736058A, “Prostacyclins and process for production thereof” (Teijin Limited, priority 1983, dated 1988)
